This note sets out measurements from patent US20150004134A1, “TREATMENT OF CANCER WITH HETEROCYCLIC INHIBITORS OF GLUTAMINASE” (Calithera Biosciences, Inc., priority 2012, published 2015).

For one test, the system named is P493-6 (myc "on") cells. Description: Cell Proliferation Assay. The test is classed as cell-based. Particulars: P493-6, 72 h, read-out: Cell prolif P493 72 h IC50, P493 cells, 72 h. The method, then:
P493-6 (myc “on”) cells were maintained in growth media (RPMI-1640, 10% FBS, 2 mM glutamine, 100 units/ml Penicillin and 100 μg/ml streptomycin) at 37° C. with 5% CO2. For compound assay, P493-6 cells were plated in 96-well V-bottom plates on the day of compound addition in 50 μl of growth media at a cell density of 200,000 cells/ml (10,000 cells/well). Compounds were serially diluted in 100% DMSO at 200-times the final concentration. Compounds were diluted 100-fold into growth media and then 50 μl of this mixture was added to cell plates making the final concentration of DMSO 0.5%. Cells were incubated with compound for 72 hrs at 37° C. with 5% CO2 and analyzed for antiproliferative effects either by Cell Titer Glo (Promega) or FACS analysis using the Viacount (Millipore) kit on the Guava instrument.
In the case of `O=C(Cc1ccccc1)Nc1nnc(CCSCCc2nnc(NC(=O)Cc3ccccc3)s2)s1` [Compound 1, N,N′-(5,5′-(thiobis(ethane-2,1-diyl))bis(1,3,4-thiadiazole-5,2-diyl))bis(2-phenylacetamide)], the IC50 – broadly, the concentration that gives 50% inhibition – came out at 0.47 µM. The same measure, in the same setting: the result for `CC(C)CC(=O)Nc1nnc(CCSCCc2nnc(NC(=O)CC(C)C)s2)s1` [Compound 4] reads > 50 µM; that for `CC(=O)OCC(=O)Nc1nnc(CCSCCc2nnc(NC(=O)COC(C)=O)s2)s1` [Compound 5], > 50 µM. For `CN(C(=O)Cc1ccccc1)c1nnc(CCSCCc2nnc(N(C)C(=O)Cc3ccccc3)s2)s1` [Compound 6], the IC50 turned out to be 2.7 µM. With `CCCC(=O)OCN(C(=O)Cc1ccccc1)c1nnc(CCSCCc2nnc(NC(=O)Cc3ccccc3)s2)s1` [Compound 7], the IC50 was 1 µM. On to `CCCC(=O)OCN(C(=O)Cc1ccccc1)c1nnc(CCSCCc2nnc(N(COC(=O)CCC)C(=O)Cc3ccccc3)s2)s1` [Compound 8], for which the IC50 worked out at 1.6 µM. On to `CC(CCc1nnc(NC(=O)Cc2ccccc2)s1)CCc1nnc(NC(=O)Cc2ccccc2)s1` [Compound 9], for which the IC50 is > 50 µM. On the same count and under the same terms, the result for `CC(C)(CCc1nnc(NC(=O)Cc2ccccc2)s1)CCc1nnc(NC(=O)Cc2ccccc2)s1` [Compound 10] reads > 50 µM; that for `O=C(Cc1ccccc1)Nc1nnc(CCCCCc2nnc(NC(=O)Cc3ccccc3)s2)s1` [Compound 11], 0.89 µM; that for `O=C(CN1CCOCC1)Nc1nnc(CCSCCc2nnc(NC(=O)CN3CCOCC3)s2)s1` [Compound 12], 36 µM.

In the case of `CC(=O)OCC(C(=O)Nc1nnc(CCSCCc2nnc(NC(=O)C(COC(C)=O)c3ccccc3)s2)s1)c1ccccc1` (stereo not shown) [Compound 14], the IC50 stood at 1.8 µM.

For the compound `CC(C)(C)C(=O)OCN(C(=O)Cc1ccccc1)c1nnc(CCSCCc2nnc(NC(=O)Cc3ccccc3)s2)s1` [Compound 15], the IC50 was determined as 1.2 µM. For `CC(C)(C)C(=O)OCN(C(=O)Cc1ccccc1)c1nnc(CCSCCc2nnc(N(COC(=O)C(C)(C)C)C(=O)Cc3ccccc3)s2)s1` [Compound 16], the concentration for half-maximal inhibition (IC50) worked out at 0.8 µM. On to `C=CCCC(=O)Nc1nnc(CCSCCc2nnc(NC(=O)CCC=C)s2)s1` [Compound 18], for which the IC50 worked out at 8.2 µM.

For `CC(C(=O)Nc1nnc(CCSCCc2nnc(NC(=O)C(C)c3ccccc3)s2)s1)c1ccccc1` (stereo not shown) [Compound 19], the IC50 worked out at 1.7 µM.

With `CC(C(=O)Nc1nnc(CCSCCc2nnc(N)s2)s1)c1ccccc1` (stereo not shown) [Compound 20], the concentration for half-maximal inhibition (IC50) was 2.6 µM. As to `O=C(Cc1ccccc1)Nc1nnc(CCCCc2nnc(NC(=O)Cc3ccccc3)s2)s1` [Compound 21, N,N′-[5,5′-(butane-1,4-diyl)-bis(1,3,4-thiadiazole-5,2-diyl)]-bis(2-phenylacetamide)], the IC50 is 0.02 µM. Still for that read-out and setting: the result for `O=C(Nc1nnc(CCSCCc2nnc(NC(=O)[C@@H]3CCCN3C(=O)C(F)(F)F)s2)s1)[C@@H]1CCCN1C(=O)C(F)(F)F` [Compound 22] reads > 50 µM; that for `Nc1nnc(CCSCCc2nnc(NC(=O)[C@@H]3CCCN3C(=O)C(F)(F)F)s2)s1` [Compound 23], > 50 µM; that for `CC(=O)Nc1nnc(CCSCCc2nnc(NC(=O)Cc3ccccc3)s2)s1` [Compound 25], 1.5 µM.

As for `CC(=O)OCC(=O)Nc1nnc(CCSCCc2nnc(NC(=O)Cc3ccccc3)s2)s1` [Compound 26], the IC50 came out at 0.7 µM. As for `O=C(Cc1ccccc1)Nc1nnc(CCSCCc2nnc(N(COC(=O)OCCCN3CCOCC3)C(=O)Cc3ccccc3)s2)s1` [Compound 27], the IC50 came to 0.47 µM. For `O=C(Nc1nnc(CCCCCc2nnc(NC(=O)C(CO)c3ccccc3)s2)s1)C(CO)c1ccccc1` (stereo not shown) [Compound 30], the IC50 was determined as 2.5 µM. On the same count and under the same terms, the result for `COC(=O)c1cccc(NC(=O)Nc2nnc(CCSCCc3nnc(NC(=O)Nc4cccc(C(=O)OC)c4)s3)s2)c1` [Compound 31] reads 4.3 µM. For the compound `CC(C)[C@H](N)C(=O)Nc1nnc(CCSCCc2nnc(NC(=O)Cc3ccccc3)s2)s1` [Compound 32], the IC50 worked out at 11 µM.

For `CC(C)[C@H](NC(=O)OC(C)(C)C)C(=O)Nc1nnc(CCSCCc2nnc(NC(=O)Cc3ccccc3)s2)s1` [Compound 33], the IC50 came to 5.3 µM. For `CC(C)[C@H](NC(=O)OC(C)(C)C)C(=O)Nc1nnc(CCSCCc2nnc(NC(=O)[C@@H](NC(=O)OC(C)(C)C)C(C)C)s2)s1` [Compound 34], the IC50 is > 50 µM. Same read-out and setting: the value for `O=C(Cc1ccccc1)Nc1nnc(CCSCCc2nnc(NC(=O)[C@@H]3CCCN3C(=O)C(F)(F)F)s2)s1` [Compound 35] was 3.8 µM; that for `O=C(Nc1nnc(CCSCCc2nnc(NC(=O)C3CCc4ccccc4C3)s2)s1)C1CCc2ccccc2C1` (stereo not shown) [Compound 37] was > 50 µM; that for `O=C(Nc1nnc(CCSCCc2nnc(NC(=O)C3CC4CCC3C4)s2)s1)C1CC2CCC1C2` (stereo not shown) [Compound 38] was 3.2 µM.

`O=C(Nc1nnc(CCSCCc2nnc(NC(=O)C3CCCO3)s2)s1)C1CCCO1` (stereo not shown) [Compound 39]: the IC50 was determined as 4.5 µM. For the compound `O=C(Nc1nnc(CCSCCc2nnc(NC(=O)C3CCCC3)s2)s1)C1CCCC1` [Compound 40], the IC50 was determined as 0.56 µM. Consider `O=C(Nc1nnc(CCSCCc2nnc(NC(=O)C3COc4ccccc4O3)s2)s1)C1COc2ccccc2O1` (stereo not shown) [Compound 41], for which the IC50 came to 33 µM. In the case of `CC(C)[C@H](NC(=O)OC(C)(C)C)C(=O)Nc1nnc(CCCCc2nnc(NC(=O)[C@@H](NC(=O)OC(C)(C)C)C(C)C)s2)s1` [Compound 42], the IC50 is > 50 µM. For `O=C(COc1ccccc1)Nc1nnc(CCCCc2nnc(NC(=O)COc3ccccc3)s2)s1` [Compound 43], the half-inhibitory concentration (IC50) is > 50 µM. Regarding `CC(CCc1nnc(NC(=O)Cc2ccccc2)s1)Cc1nnc(NC(=O)Cc2ccccc2)s1` (stereo not shown) [Compound 44], the IC50 came to 2.6 µM. Still for that read-out and setting: the result for `O=C(Nc1nnc(CCCCc2nnc(NC(=O)C(F)(F)F)s2)s1)C(F)(F)F` [Compound 45] reads > 50 µM; that for `CC(C)(C)OC(=O)N[C@@H](C(=O)Nc1nnc(CCSCCc2nnc(NC(=O)[C@H](NC(=O)OC(C)(C)C)c3ccccc3)s2)s1)c1ccccc1` [Compound 46], 16 µM. In the case of `N[C@@H](C(=O)Nc1nnc(CCSCCc2nnc(NC(=O)[C@H](N)c3ccccc3)s2)s1)c1ccccc1` [Compound 47], the IC50 was 35 µM. With `O=C(CC1CCCCC1)Nc1nnc(CCSCCc2nnc(NC(=O)CC3CCCCC3)s2)s1` [Compound 48], the IC50 turned out to be 0.42 µM. As for `C[C@H](NC(=O)OC(C)(C)C)C(=O)Nc1nnc(CCSCCc2nnc(NC(=O)[C@H](C)NC(=O)OC(C)(C)C)s2)s1` [Compound 49], the IC50 was 17 µM. Turning to `O=C(Nc1nnc(CCSCCc2nnc(NC(=O)C3Cc4ccccc4O3)s2)s1)C1Cc2ccccc2O1` (stereo not shown) [Compound 50], the IC50 came out at 8.2 µM. Turning to `O=C(Nc1nnc(CCCCc2nnc(NC(=O)C3Cc4ccccc4O3)s2)s1)C1Cc2ccccc2O1` (stereo not shown) [Compound 51], the IC50 was 1.3 µM. As to `O=C(Nc1nnc(CCCCc2nnc(NC(=O)C3COc4ccccc4O3)s2)s1)C1COc2ccccc2O1` (stereo not shown) [Compound 52], the IC50 was determined as 30 µM. As to `O=C(Nc1nnc(CCCCc2nnc(NC(=O)C3CCCC3)s2)s1)C1CCCC1` [Compound 53], the IC50 turned out to be 34 µM. Take `O=C(Nc1nnc(CCCCc2nnc(NC(=O)C3CCCO3)s2)s1)C1CCCO1` (stereo not shown) [Compound 54]: the IC50 turned out to be 1.6 µM. For the compound `O=C(Nc1nnc(CCCCc2nnc(NC(=O)C3CC4CCC3C4)s2)s1)C1CC2CCC1C2` (stereo not shown) [Compound 55], the IC50 stood at 3.9 µM.

Regarding `O=C(CC1CCCC1)Nc1nnc(CCSCCc2nnc(NC(=O)CC3CCCC3)s2)s1` [Compound 58], the concentration for half-maximal inhibition (IC50) was found to be 3.7 µM. For `O=C(Cn1cccn1)Nc1nnc(CCCCc2nnc(NC(=O)Cn3cccn3)s2)s1` [Compound 60], the IC50 amounted to 14 µM. With `O=C(Nc1nnc(CCCCc2nnc(NC(=O)C3(C(F)(F)F)CC3)s2)s1)C1(C(F)(F)F)CC1` [Compound 62], the IC50 worked out at 19 µM. For the compound `CC(C)(C)OC(=O)N1CCN(C(C(=O)Nc2nnc(CCCCc3nnc(NC(=O)C(c4ccccc4)N4CCN(C(=O)OC(C)(C)C)CC4)s3)s2)c2ccccc2)CC1` (stereo not shown) [Compound 63], the IC50 was 2.6 µM. In the case of `O=C1CC(C(=O)Nc2nnc(CCCCc3nnc(NC(=O)C4CC(=O)c5ccccc54)s3)s2)c2ccccc21` (stereo not shown) [Compound 64], the IC50 is 0.23 µM.

Turning to `COC(C(=O)Nc1nnc(CCCCc2nnc(NC(=O)C(OC)c3ccccc3)s2)s1)c1ccccc1` (stereo not shown) [Compound 65], the IC50 was 0.52 µM. `COC(C(=O)Nc1nnc(CCSCCc2nnc(NC(=O)C(OC)c3ccccc3)s2)s1)c1ccccc1` (stereo not shown) [Compound 67]: the IC50 worked out at 1.8 µM.

With `O=CO[C@@H](C(=O)Nc1nnc(CCCCc2nnc(NC(=O)[C@H](OC=O)c3ccccc3)s2)s1)c1ccccc1` [Compound 68], the IC50 was 0.34 µM.

For `O=C(Nc1nnc(CCCCc2nnc(NC(=O)C(O)Cc3ccccc3)s2)s1)C(O)Cc1ccccc1` (stereo not shown) [Compound 69], the IC50 is 0.33 µM. The same measure, in the same setting: the value for `CC(C)(C)OC(=O)N1CCN(C(C(=O)Nc2nnc(CCSCCc3nnc(NC(=O)Cc4ccccc4)s3)s2)c2ccccc2)CC1` (stereo not shown) [Compound 70] was 3.4 µM; that for `CC(=O)O[C@H](C(=O)Nc1nnc(CCSCCc2nnc(NC(=O)[C@@H](OC(C)=O)c3ccccc3)s2)s1)c1ccccc1` [Compound 71] was 6.9 µM.

Still in this test, the particulars now being: P493-6, read-out: Cell prolif P493 72 h IC50; P493 cells, 72 h.
For `O=C(Nc1nnc(CCSCCc2nnc(NC(=O)c3ccccc3)s2)s1)c1ccccc1` [Compound 2], the IC50 came out at 0.63 µM. Regarding `COc1ccc(C(=O)Nc2nnc(CCSCCc3nnc(NC(=O)c4ccc(OC)cc4)s3)s2)cc1` [Compound 3], the IC50 was > 50 µM.

For `CC(=O)Nc1nnc(CCSCCc2nnc(NC(C)=O)s2)s1` [Compound 13], the 50% inhibitory concentration (IC50) amounted to 12 µM.
